Article PMC5750218, “Protein-inspired antibiotics active against vancomycin- and daptomycin-resistant bacteria” (Nature Communications, 2018)
≈ marks a conversion by molar mass, not a printed value.

Experiments:
[1] = tested on: Vancomycin-intermediate S. aureus NRS1; experiment: microbe, parasite or virus in culture; details: Vancomycin-intermediate NRS1
Method: (§1) Antimicrobial activity of compounds was tested against a number of bacterial strains by broth microdilution (BMD) assay with MIC determination, including S. aureus (MSSA ATCC® 29213™, MRSA ATCC® 43300™, VISA NARSA NRS1, VISA NARSA NRS4), Streptococcus pneumoniae (MDR ATCC® 700677™) and Enterococcus faecium (MDR VanA ATCC® 51559™). ATCC strains were sourced from the American Type Culture Collection and NRS strains from NARSA (Network on Antimicrobial Resistance in S. aureus) via BEI Resources (www.beiresources.org). All compounds were prepared to 160 µg mL^−1 solution in water from a stock solution of 1 mM concentration.
(§2) The compounds, along with standard antibiotics were serially diluted twofold across the wells of 96-well non-binding surface (NBS) polystyrene plates (Corning 3641). […] Standards ranged from 64 to 0.03 µg mL^−1 and compounds from 8 to 0.003 µg mL^−1 with final assay volumes of 100 µL per well. Gram-positive bacteria were cultured in Mueller Hinton broth (MHB) (Bactolaboratories, Cat. no. 211443) at 37 °C overnight. A sample of each culture was then diluted 40-fold in fresh MHB and incubated at 37 °C for 2–3 h. […] All the plates were covered and incubated at 37 °C for 24 h. MICs were the lowest concentration showing no visible growth.

[2] = tested on: Vancomycin-resistant (VanA) Enterococcus faecium ATCC 51559; experiment: microbe, parasite or virus in culture; details: ATCC 51559
Method: as §1, §2

[3] = tested on: Multi-drug-resistant S. pneumoniae ATCC 700677; experiment: microbe, parasite or virus in culture; details: ATCC 700677
Method: as §1, §2

[4] = Cytotoxicity MTT assay; type: cell-based, human; details: human
Method: Compound cytotoxicity was evaluated against HepG2 (ATCC-®HB-8065 liver hepatoceullular carcinoma) and HEK293 (ATCC®CRL-1573, embryonic kidney) human cell lines using standard (3-(4,5-dimethylthiazol-2-yl)−2,5-diphenyltetrazolium bromide (MTT) assay protocol with slight changes. In brief, HepG2 and HEK293 cells (assessed annually for mycoplasma contamination) were seeded as 1.5 × 10^4 cells per well in a clear 96-well tissue culture treated plate in a final volume of 100 μL in Dulbecco’s Modified Eagle Medium (DMEM)(GIBCO-Invitrogen #11995-073), in which 1% of FBS was added. Cells were incubated for 24 h at 37 °C, 5% CO2 to allow cells to attach to the plates. […] After the incubation, 0.4 mg mL^−1 MTT (3-(4,5-dimethylthiazol-2-yl)−2,5-diphenyltetrazolium bromide) (Invitrogen) was added to each well. The plates were then incubated for 2 h at 37 °C, 5% CO2. The media was removed, and purple formazan crystals were resuspended in 60 μL of DMSO. The absorbance was read at 570 nm using a Polarstar Omega plate reader. The data was then analysed by Prism software. Results are presented as the average percentage of control ± S.D. for each set of duplicate wells using the following equation: percent viability = (ABSTEST – ABSPOSITIVE CTRL / ABSUNTREATED –ABS POSITIVE CTRL)×100.

[5] = tested on: Methicillin-resistant S. aureus ATCC 43300; experiment: microbe, parasite or virus in culture; details: ATCC 43300, 24 h
Method: as §1
as §2, with “The compounds, along with standard antibiotics were serially diluted twofold across the wells of 96-well non-binding surface (NBS) polystyrene plates (Corning 3641).” left out

[6] = Cytotoxicity MTT assay; type: cell-based, human; details: human; remark: listed apart in the source
Method: Compound cytotoxicity was evaluated against HepG2 (ATCC-®HB-8065 liver hepatoceullular carcinoma) and HEK293 (ATCC®CRL-1573, embryonic kidney) human cell lines using standard (3-(4,5-dimethylthiazol-2-yl)−2,5-diphenyltetrazolium bromide (MTT) assay protocol with slight changes. In brief, HepG2 and HEK293 cells (assessed annually for mycoplasma contamination) were seeded as 1.5 × 10^4 cells per well in a clear 96-well tissue culture treated plate in a final volume of 100 μL in Dulbecco’s Modified Eagle Medium (DMEM)(GIBCO-Invitrogen #11995-073), in which 1% of FBS was added. Cells were incubated for 24 h at 37 °C, 5% CO2 to allow cells to attach to the plates. Compounds prepared at 100 µM to 0.046 µM in threefold dilutions were added into each well and incubated for 24 h at 37 °C, 5% CO2. After the incubation, 0.4 mg mL^−1 MTT (3-(4,5-dimethylthiazol-2-yl)−2,5-diphenyltetrazolium bromide) (Invitrogen) was added to each well. The plates were then incubated for 2 h at 37 °C, 5% CO2. The media was removed, and purple formazan crystals were resuspended in 60 μL of DMSO. The absorbance was read at 570 nm using a Polarstar Omega plate reader. The data was then analysed by Prism software. Results are presented as the average percentage of control ± S.D. for each set of duplicate wells using the following equation: percent viability = (ABSTEST – ABSPOSITIVE CTRL / ABSUNTREATED –ABS POSITIVE CTRL)×100.

[7] = tested on: Bacillus subtilis ATCC 6633; experiment: microbe, parasite or virus in culture; type: cell-based; details: for Ac2Kaa concentration required to neutralise MIC activity / MIC: ATCC 6633, 48 h; for Molar excess of Ac2Kaa ligand required to antagonise antibacterial activity: [ligand]/[antibiotic], B. subtilis ATCC 6633, 24 h
Method: All compounds were dissolved in H2O. Bacillus subtilis ATCC® 6633™ NRS-231 was cultured in MHB at 37 °C for 48 h. A sample of each culture was then diluted 40-fold in fresh MHB and incubated at 37 °C for 18 h. Compounds were added to each row of 96-well NBS plates (NBS, Corning 3641), in duplicate. The tripeptide N,N΄-diacetyl-L-Lys-D-Ala-D-Ala was serially diluted twofold across the compound-containing wells from 6400 to 3 µg mL^−1. To this the resultant mid-log phase cultures were diluted to the final concentration of 5 × 10^5 CFU mL^−1, then added to wells of the compound-containing plates. All the plates were covered and incubated at 37 °C for 24 h.

Compound	MIC VISA [1] [µg/mL]	MIC VRE [2] [µg/mL]	MIC MDR S.P. [3] [µg/mL]	CC50 at 24 h [4] [µM]	MIC MRSA [5] [µg/mL]	CC50 at 24 h [6] [µM]	Ac2Kaa concentration required to neutralise MIC activity [7] [µg/mL]	MIC [7] [µg/mL]	Molar excess of Ac2Kaa ligand required to antagonise antibacterial activity [7]
CCCCCCCCCCCCCC(=O)NCC(=O)N[C@@H](CO)C(=O)N[C@@H](CO)C(=O)N[C@@H](CCCCN)C(=O)N[C@@H](CO)C(=O)N1CCC[C@H]1C(=O)N[C@@H](CO)C(=O)N[C@@H](CCCCN)C(=O)N[C@@H](CCCCN)C(=O)N[C@@H](CCCCN)C(=O)N1CCC[C@H]1C(=O)NCC(=O)N[C@@H](CC(=O)O)C(=O)N[C@@H](CSSCCNC(=O)[C@H]1NC(=O)[C@H]2NC(=O)[C@H](NC(=O)[C@@H]3NC(=O)[C@H](CC(N)=O)NC(=O)[C@H](NC(=O)[C@@H](CC(C)C)NC)[C@H](O)c4ccc(c(Cl)c4)Oc4cc3cc(c4O[C@@H]3O[C@H](CO)[C@@H](O)[C@H](O)[C@H]3O[C@H]3C[C@](C)(N)[C@H](O)[C@H](C)O3)Oc3ccc(cc3Cl)[C@H]2O)c2ccc(O)c(c2)-c2c(O)cc(O)cc21)C(N)=O [Compound 11]	0.5 (≈ 0.16 µM)	0.125 (≈ 0.04 µM)	0.09 (≈ 0.0288 µM)	9	0.16 (≈ 0.0513 µM)	18			
CCCCCCCCCCCCCCCC(=O)NCC(=O)N[C@@H](CO)C(=O)N[C@@H](CO)C(=O)N[C@@H](CCCCN)C(=O)N[C@@H](CO)C(=O)N1CCC[C@H]1C(=O)N[C@@H](CO)C(=O)N[C@@H](CCCCN)C(=O)N[C@@H](CCCCN)C(=O)N[C@@H](CCCCN)C(=O)N[C@@H](CCCCN)C(=O)N[C@@H](CCCCN)C(=O)N[C@@H](CCCCN)C(=O)N1CCC[C@H]1C(=O)NCC(=O)N[C@@H](CC(=O)O)C(=O)N[C@@H](CSSCCNC(=O)[C@H]1NC(=O)[C@H]2NC(=O)[C@H](NC(=O)[C@@H]3NC(=O)[C@H](CC(N)=O)NC(=O)[C@H](NC(=O)[C@@H](CC(C)C)NC)[C@H](O)c4ccc(c(Cl)c4)Oc4cc3cc(c4O[C@@H]3O[C@H](CO)[C@@H](O)[C@H](O)[C@H]3O[C@H]3C[C@](C)(N)[C@H](O)[C@H](C)O3)Oc3ccc(cc3Cl)[C@H]2O)c2ccc(O)c(c2)-c2c(O)cc(O)cc21)C(N)=O [Compound 9]	2 (≈ 0.566 µM)	8 (≈ 2.26 µM)	0.125 (≈ 0.0354 µM)	4	0.06 (≈ 0.017 µM)	7			
CCCCCCCCCC(=O)NCC(=O)N[C@@H](CO)C(=O)N[C@@H](CO)C(=O)N[C@@H](CCCCN)C(=O)N[C@@H](CO)C(=O)N1CCC[C@H]1C(=O)N[C@@H](CO)C(=O)N[C@@H](CCCCN)C(=O)N[C@@H](CCCCN)C(=O)N[C@@H](CCCCN)C(=O)N[C@@H](CCCCN)C(=O)N[C@@H](CCCCN)C(=O)N[C@@H](CCCCN)C(=O)N1CCC[C@H]1C(=O)NCC(=O)N[C@@H](CC(=O)O)C(=O)N[C@@H](CSSCCNC(=O)[C@H]1NC(=O)[C@H]2NC(=O)[C@H](NC(=O)[C@@H]3NC(=O)[C@H](CC(N)=O)NC(=O)[C@H](NC(=O)[C@@H](CC(C)C)NC)[C@H](O)c4ccc(c(Cl)c4)Oc4cc3cc(c4O[C@@H]3O[C@H](CO)[C@@H](O)[C@H](O)[C@H]3O[C@H]3C[C@](C)(N)[C@H](O)[C@H](C)O3)Oc3ccc(cc3Cl)[C@H]2O)c2ccc(O)c(c2)-c2c(O)cc(O)cc21)C(N)=O [Compound 6]	>8	1.25 (≈ 0.362 µM)	3 (≈ 0.87 µM)	> 100	2.5 (≈ 0.725 µM)	> 100			
CCCCCCCCCCCCCC(=O)NCC(=O)N[C@@H](CO)C(=O)N[C@@H](CCCCN)C(=O)N[C@@H](CCCCN)C(=O)N[C@@H](CCCCN)C(=O)N[C@@H](CCCCNC(=O)[C@H]1NC(=O)[C@H]2NC(=O)[C@H](NC(=O)[C@@H]3NC(=O)[C@H](CC(N)=O)NC(=O)[C@H](NC(=O)[C@@H](CC(C)C)NC)[C@H](O)c4ccc(c(Cl)c4)Oc4cc3cc(c4O[C@@H]3O[C@H](CO)[C@@H](O)[C@H](O)[C@H]3O[C@H]3C[C@](C)(N)[C@H](O)[C@H](C)O3)Oc3ccc(cc3Cl)[C@H]2O)c2ccc(O)c(c2)-c2c(O)cc(O)cc21)C(=O)O [Compound 16, nC13CO-GSKKK-K(Vancomycin)-OH]	0.007 (≈ 0.00302 µM)		<0.003	18	0.06 (≈ 0.0259 µM)	53			
CN[C@H](CC(C)C)C(=O)N[C@H]1C(=O)N[C@@H](CC(N)=O)C(=O)N[C@H]2C(=O)N[C@H]3C(=O)N[C@H](C(=O)N[C@H](C(=O)NCCCC[C@H](NC(=O)[C@H](CCCCN)NC(=O)[C@H](CCCCN)NC(=O)[C@H](CCCCN)NC(=O)c4ccc(Oc5ccccc5)cc4)C(=O)O)c4cc(O)cc(O)c4-c4cc3ccc4O)[C@H](O)c3ccc(c(Cl)c3)Oc3cc2cc(c3O[C@@H]2O[C@H](CO)[C@@H](O)[C@H](O)[C@H]2O[C@H]2C[C@](C)(N)[C@H](O)[C@H](C)O2)Oc2ccc(cc2Cl)[C@H]1O [Compound 40, POB-KKK-K-(Vancomycin)-OH]							12.5	0.03 (≈ 0.0139 µM)	916
CCCCCCCCCCC(=O)NCC(=O)N[C@@H](CO)C(=O)N[C@@H](CCCCN)C(=O)N[C@@H](CCCCN)C(=O)N[C@@H](CCCCN)C(=O)N[C@@H](CCCCNC(=O)[C@H]1NC(=O)[C@H]2NC(=O)[C@H](NC(=O)[C@@H]3NC(=O)[C@H](CC(N)=O)NC(=O)[C@H](NC(=O)[C@@H](CC(C)C)NC)[C@H](O)c4ccc(c(Cl)c4)Oc4cc3cc(c4O[C@@H]3O[C@H](CO)[C@@H](O)[C@H](O)[C@H]3O[C@H]3C[C@](C)(N)[C@H](O)[C@H](C)O3)Oc3ccc(cc3Cl)[C@H]2O)c2ccc(O)c(c2)-c2c(O)cc(O)cc21)C(=O)O [Compound 39, nC10CO-GSKKK-K-(Vancomycin)-OH]							400	0.06 (≈ 0.0264 µM)	30,569
